The subject of the test is C. glabrata ATCC 200918. The experiment in a line: Checkerboard MIC assay, FICI. Format: cell-based, Candida glabrata. The note with it: combination with Compound 1. The text has this: The following assay was used to determine the minimum inhibitory concentration (MIC) and fractional inhibitory concentration index (FICI) for combinations of an antifungal agent and a glycopeptide antibacterial agent. This assay and methods for calculating FICI are well known in the art. See, for example, Eliopoulos, E. G. and R. Moellering, Jr. “Antimicrobial Combinations” in Antibiotics in Laboratory Medicine, edited by V. Lorian, 4th Ed., Williams & Wilkins, Baltimore, MD, pp. 330-396 (1996); […] et al., Antimicrobial Agents and Chemotherapy 47(4):1416-1418 (2003); or […] et al., Antimicrobial Agents and Chemotherapy 46(10):3323-3326 (2002). Procedures, protocols, supplies and equipment used in this assay follow the recommendations approved and published by the National Committee for Clinical Laboratory Standards (NCCLS), Wayne, Pa. as described in NCCLS 2003, “Reference Method for Broth Dilution Antimicrobial Susceptibility Tests for Bacteria that Grow Aerobically; Approved Standard” (NCCLS document M7-A6); NCCLS 2002, “Reference Method for Broth Dilution Antifungal Susceptibility Tests of Filamentous Fungi that Grow Aerobically; Approved Standard” (NCCLS document M38-A); and NCCLS 2002 “Reference Method for Broth Dilution Antifungal Susceptibility Tests of Yeast; Approved Standards-2nd Edition” (NCCLS document M27-A2). Using a checkerboard method, a 2-fold dilution 100× final concentration master plate was prepared using a 96-well U-shape microtiter plate and an appropriate solvent. In the “checkerboard” method, a microtiter plate is divided into “columns” in which each well in the column contains the same amount of an antifungal agent (Compound A) being diluted along the x-axis, and “rows” in which each well in the row contains the same amount of a glycopeptide antibacterial agent (Compound B) being diluted on the y-axis. Also included is a row (or column) for Compound A or B alone. The dilutions used in the checkerboard are exponential (by powers of two). The result is that each well in the microtiter plate contains a unique concentration of the two compounds being tested. […] After mixing, 100 μL of 2× drug combinations were distributed into 96-well microtiter plates. […] Compound A was not added to Column 12, so Column 12 contained only Compound B. Compound B was diluted from row A starting at 6,400 μg/mL down to row G (100 μg/mL). Wells in Row A contained a final concentration of 64 μg/mL of Compound B; Row B contained a final concentration of 32 μg/mL of Compound B; Row C contained a final concentration of 16 μg/mL of Compound B; etc. Compound B was not added to Row H, so Row H only contained Compound A. […] The MIC of the glycopeptide antibacterial agent determined from this experiment was used in FIC calculations. […]

Turning to `C[C@@H]1[C@H](O)[C@@H](C)/C=C/C=C/C=C/C=C/C=C/C=C/C=C/[C@H](O[C@@H]2O[C@H](C)[C@@H](O)[C@H](N)[C@@H]2O)C[C@@H]2O[C@](O)(C[C@@H](O)C[C@@H](O)[C@H](O)CC[C@@H](O)C[C@@H](O)CC(=O)O[C@H]1C)C[C@H](O)[C@H]2C(=O)O` [Amphotericin B], the FICI stood at 0.19.

For `C[C@@H]1[C@H](O)[C@@H](C)/C=C/C=C/CC/C=C/C=C/C=C/C=C/C(O[C@H]2O[C@H](C)[C@@H](O)[C@H](N)[C@@H]2O)CC2O[C@](O)(CC(O)C(O)CCC(O)CC(O)CC(O)CC(=O)O[C@H]1C)CC(O)C2C(=O)O` (some centres unmarked) [Nystatin], the FICI is 0.31.
